Broadly, the melting point is the temperature, or range, at which the solid turns liquid.

One data set concerns the target A1 adenosine receptor (Homo sapiens, UniProt P30542). The settings on record: cited from earlier work.
The target in data set [1] is T1, human A2a receptor subtype (Homo sapiens, UniProt P29274).
T1 construct: purchased Receptor Biology (Beltsville, Md.) RB-HA2a
Put plainly: Adenosine 2a receptor subtype competition radioligand binding ([3H]CGS-21680, HEK293 membranes). The note with it: Table 13; probably % activity @ 10 μM (footnote 8).

T1 sequence (P29274 whole entry): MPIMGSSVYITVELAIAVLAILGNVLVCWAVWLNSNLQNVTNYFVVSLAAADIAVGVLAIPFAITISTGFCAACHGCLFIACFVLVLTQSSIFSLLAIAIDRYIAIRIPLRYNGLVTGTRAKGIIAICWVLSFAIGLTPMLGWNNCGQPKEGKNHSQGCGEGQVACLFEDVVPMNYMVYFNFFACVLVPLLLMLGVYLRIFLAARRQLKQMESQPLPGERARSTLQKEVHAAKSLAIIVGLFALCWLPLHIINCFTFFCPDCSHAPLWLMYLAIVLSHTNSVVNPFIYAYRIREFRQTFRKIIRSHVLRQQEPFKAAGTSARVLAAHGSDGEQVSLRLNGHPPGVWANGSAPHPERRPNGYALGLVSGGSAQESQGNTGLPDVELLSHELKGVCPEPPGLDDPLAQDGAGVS
A1 adenosine receptor, sequence (P30542 whole entry): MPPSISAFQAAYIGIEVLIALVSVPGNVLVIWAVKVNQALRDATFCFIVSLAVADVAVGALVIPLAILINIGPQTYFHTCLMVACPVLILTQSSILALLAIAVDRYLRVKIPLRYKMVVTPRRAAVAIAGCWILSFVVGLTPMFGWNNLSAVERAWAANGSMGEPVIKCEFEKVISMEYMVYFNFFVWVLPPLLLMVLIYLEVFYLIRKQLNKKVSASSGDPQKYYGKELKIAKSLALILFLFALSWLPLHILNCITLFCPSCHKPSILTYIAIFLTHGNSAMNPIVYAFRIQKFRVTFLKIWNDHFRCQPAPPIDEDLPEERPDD

The compound `CC(=O)NCCNc1nc(-c2ccccc2)nc2[nH]c(COc3ccccc3)cc12` [Example 17, 4-(2-acetylaminoethyl)amino-6-phenoxymethyl-2-phenyl-7H-pyrrolo[2,3d]pyrimidine] gave a melting point of 196 to 197 °C.

In the case of `CC(Cc1ccccc1)Nc1ncnc2c1ncn2[C@@H]1O[C@H](CO)[C@@H](O)[C@H]1O` (single isomer, unassigned; (-)) [PIA, (−)-N6-(2-phenylisopropyl)-adenosine], the reported affinity entry on A1 adenosine receptor is given as “approximately 50 nM”. For `CNC(=O)NCCCNc1nc(-c2ccccc2)nc2[nH]c(C)c(C)c12` [Compound 1310], the “A2a, value printed as %” value in data set [1] amounted to 76%.

`c1ccc(-c2nc(NCCc3cnc[nH]3)c3cc[nH]c3n2)cc1` [Compound 1720, [2-(3H-Imidazol-4-yl)-ethyl]-(2-phenyl-7H-pyrrolo[2,3-d]pyrimidin-4-yl)-amine]: the melting point was in the range of 234 to 235 °C.
